Experimental data published in ChEMBL document CHEMBL1201862, “PubChem BioAssay data set” (2004).
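Cultured in 96-well plates, cells were exposed to test compound for 48 hours across five concentrations. GI50: concentration for 50% inhibition of growth.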 Calls of active or inactive are those of the source. Cut-off read from the data, not from the text of the source: active = GI50 up to about 1.1 µM and inactive = higher.

Legend:
Test in all cases: NCI anticancer screen, dose series, 48 h
SK-OV-3 = test system: SK-OV-3
OVCAR-5 = test system: OVCAR-5
HCT-116 = test system: HCT-116
KM12 = test system: KM12
CAKI-1 = test system: CAKI-1
HCC 2998 = test system: HCC 2998
T47D = test system: T47D
Hs-578T = test system: Hs-578T
COLO 205 = test system: COLO 205
SF-268 = test system: SF-268
MDA-MB-435 = test system: MDA-MB-435
MDA-MB-231 = test system: MDA-MB-231
HT-29 = test system: HT-29
SF-539 = test system: SF-539
NCI/ADR-RES = test system: NCI/ADR-RES
IGROV-1 = test system: IGROV-1
NCI-H226 = test system: NCI-H226
MOLT-4 = test system: MOLT-4
NCI-H522 = test system: NCI-H522
U-251 = test system: U-251

Compound	GI50 (SK-OV-3)	GI50 (OVCAR-5)	GI50 (HCT-116)	GI50 (KM12)	GI50 (CAKI-1)	GI50 (HCC 2998)	GI50 (T47D)	GI50 (Hs-578T)	GI50 (COLO 205)	GI50 (SF-268)	GI50 (MDA-MB-435)	GI50 (MDA-MB-231)	GI50 (HT-29)	GI50 (SF-539)	GI50 (NCI/ADR-RES)	GI50 (IGROV-1)	GI50 (NCI-H226)	GI50 (MOLT-4)	GI50 (NCI-H522)	GI50 (U-251)
C=C1C(C(O)C[C@H](C)C2O[C@@]3(CCCCO3)CCC2C)O[C@@H]2CCC3(CCC(/C=C/[C@@H](C)C4CC(C)=CC5(O4)O[C@H](C[C@](C)(O)C(=O)O)CCC5O)O3)OC2[C@@H]1O (stereo not given in full)	0.00955 µM (active)	0.00826 µM (active)	0.00381 µM (active)	0.00374 µM (active)	0.0107 µM (active)	0.00171 µM (active)	0.0326 µM (active)	0.00318 µM (active)	0.00376 µM (active)	0.00335 µM (active)	0.00075 µM (active)	0.00411 µM (active)	0.00828 µM (active)	0.00254 µM (active)	0.128 µM (active)	0.0217 µM (active)	0.00405 µM (active)	0.0122 µM (active)	0.00182 µM (active)	0.00105 µM (active)
Cc1nc2c(=O)n(-c3ccccc3)c3ccccc3c2o1	> 100 µM (inactive)	> 100 µM (inactive)	> 100 µM (inactive)	> 100 µM (inactive)	> 100 µM (inactive)	> 100 µM (inactive)	> 100 µM (inactive)	> 100 µM (inactive)	> 100 µM (inactive)	> 100 µM (inactive)	> 100 µM (inactive)	> 100 µM (inactive)	> 100 µM (inactive)	> 100 µM (inactive)	> 100 µM (inactive)	> 100 µM (inactive)	> 100 µM (inactive)	> 100 µM (inactive)		> 100 µM (inactive)
CC(=N/NC(=S)N(C)C)/C(=N\NC(=S)N(C)C)c1ccccc1	1.98 µM (inactive)	2.21 µM (inactive)	2.93 µM (inactive)	2.15 µM (inactive)	2.53 µM (inactive)	0.989 µM (active)	1.65 µM (inactive)	3.11 µM (inactive)	1.79 µM (inactive)	2.07 µM (inactive)	1.87 µM (inactive)	3.1 µM (inactive)	3.38 µM (inactive)	3.66 µM (inactive)	2.47 µM (inactive)	1.66 µM (inactive)	1.71 µM (inactive)	7.16 µM (inactive)	1.78 µM (inactive)	2.8 µM (inactive)
O=C(/C=C1\N=C(c2ccccc2)N(c2nc3ccc(Sc4ccccc4)cc3[nH]2)C1=O)/C=C/c1ccccc1	40.9 µM (inactive)	44 µM (inactive)	32.8 µM (inactive)	26.7 µM (inactive)	31.3 µM (inactive)	17.4 µM (inactive)	22.6 µM (inactive)	26.4 µM (inactive)	16.5 µM (inactive)	31.4 µM (inactive)	15.7 µM (inactive)	22.4 µM (inactive)	30.3 µM (inactive)		24.4 µM (inactive)	45.4 µM (inactive)		33.3 µM (inactive)	20.3 µM (inactive)	27.7 µM (inactive)
COc1ccc2c(=O)c3ccoc3[nH]c2c1	> 100 µM (inactive)		> 100 µM (inactive)	> 100 µM (inactive)	> 100 µM (inactive)	> 100 µM (inactive)	> 100 µM (inactive)	80.9 µM (inactive)	> 100 µM (inactive)	> 100 µM (inactive)	> 100 µM (inactive)	> 100 µM (inactive)	> 100 µM (inactive)	> 100 µM (inactive)	> 100 µM (inactive)	> 100 µM (inactive)	> 100 µM (inactive)	> 100 µM (inactive)		> 100 µM (inactive)
O=C1NC(SSC2=NNC3(C(=O)N2)c2ccccc2-c2ccccc23)=NNC12c1ccccc1-c1ccccc12	> 10 µM (inactive)	> 10 µM (inactive)	> 10 µM (inactive)	> 10 µM (inactive)	> 10 µM (inactive)	> 10 µM (inactive)	> 10 µM (inactive)	> 10 µM (inactive)	> 10 µM (inactive)	> 10 µM (inactive)	> 10 µM (inactive)	> 10 µM (inactive)	> 10 µM (inactive)	> 10 µM (inactive)	> 10 µM (inactive)	> 10 µM (inactive)	> 10 µM (inactive)	> 10 µM (inactive)	> 10 µM (inactive)	> 10 µM (inactive)
CCC(c1ccc2cc(O)ccc2c1)C(C)(C)C(=O)O (stereo not given)	> 100 µM (inactive)	> 100 µM (inactive)	> 100 µM (inactive)	> 100 µM (inactive)	> 100 µM (inactive)	> 100 µM (inactive)	> 100 µM (inactive)	> 100 µM (inactive)	> 100 µM (inactive)	> 100 µM (inactive)	> 100 µM (inactive)	> 100 µM (inactive)	> 100 µM (inactive)	> 100 µM (inactive)	> 100 µM (inactive)	> 100 µM (inactive)	> 100 µM (inactive)	> 100 µM (inactive)	> 100 µM (inactive)	> 100 µM (inactive)
COc1cc2c(c3c1c(=O)c1ccccc1n3C)C=C([N+](=O)[O-])C(C)(C)O2	0.356 µM (active)		0.239 µM (active)	> 100 µM (inactive)	0.223 µM (active)	0.325 µM (active)	> 100 µM (inactive)	25.6 µM (inactive)	0.0253 µM (active)	0.608 µM (active)	0.0931 µM (active)	1.08 µM (active)	0.522 µM (active)	1.36 µM (inactive)	2.09 µM (inactive)	0.575 µM (active)	0.546 µM (active)	0.0861 µM (active)	0.365 µM (active)	26.8 µM (inactive)
COc1cc2c(cc1OC)C(C)N(C)c1c-2c(OC(C)=O)cc2cc(OC)c(OC)cc12 (stereo not given)	27.7 µM (inactive)	36.4 µM (inactive)	13.9 µM (inactive)	14.2 µM (inactive)	16.1 µM (inactive)	15.6 µM (inactive)	8.24 µM (inactive)	19.1 µM (inactive)	6.43 µM (inactive)	26.9 µM (inactive)	15.8 µM (inactive)	5.92 µM (inactive)	8.04 µM (inactive)	16 µM (inactive)	7.48 µM (inactive)		2.33 µM (inactive)	5.69 µM (inactive)	3.34 µM (inactive)	21.7 µM (inactive)
COc1ccc(-c2oc3c(CC(=O)O)cccc3c(=O)c2OC)cc1	> 100 µM (inactive)	> 100 µM (inactive)	> 100 µM (inactive)		21.6 µM (inactive)	> 100 µM (inactive)	> 100 µM (inactive)	> 100 µM (inactive)	> 100 µM (inactive)	> 100 µM (inactive)	> 100 µM (inactive)	> 100 µM (inactive)	> 100 µM (inactive)	> 100 µM (inactive)	> 100 µM (inactive)	> 100 µM (inactive)	> 100 µM (inactive)	> 100 µM (inactive)	> 100 µM (inactive)	> 100 µM (inactive)
COc1ccccc1NC(=O)CC(=O)N1N=C(C)C(/N=N/c2ccc(C(=O)O)cc2)C1=O (stereo not given)		> 100 µM (inactive)	> 100 µM (inactive)	> 100 µM (inactive)	> 100 µM (inactive)	> 100 µM (inactive)	> 100 µM (inactive)	> 100 µM (inactive)	> 100 µM (inactive)	> 100 µM (inactive)	> 100 µM (inactive)	> 100 µM (inactive)	23.8 µM (inactive)	> 100 µM (inactive)	> 100 µM (inactive)	> 100 µM (inactive)			> 100 µM (inactive)	> 100 µM (inactive)
COc1c(OC)c(OC)c(-c2cc(=O)c3c(OC)c(OC)c(OC)c(OC)c3o2)c(OC)c1OC	71.1 µM (inactive)	> 100 µM (inactive)	20.6 µM (inactive)		43.4 µM (inactive)	28.7 µM (inactive)	9.14 µM (inactive)	52.5 µM (inactive)	37.4 µM (inactive)	69.5 µM (inactive)	34.5 µM (inactive)	29.9 µM (inactive)	28.8 µM (inactive)	48.9 µM (inactive)	23.9 µM (inactive)	25.5 µM (inactive)	54.2 µM (inactive)	32.7 µM (inactive)	16.2 µM (inactive)	30.1 µM (inactive)
CS(=O)(=O)C[S+]([O-])C[S+]([O-])C[S+]([O-])CC(NC(=O)CCC(N)C(=O)O)C(=O)O (stereo not given)		> 100 µM (inactive)	> 100 µM (inactive)	> 100 µM (inactive)	> 100 µM (inactive)	> 100 µM (inactive)	> 100 µM (inactive)	51.8 µM (inactive)	> 100 µM (inactive)	> 100 µM (inactive)	> 100 µM (inactive)	> 100 µM (inactive)	> 100 µM (inactive)	> 100 µM (inactive)	> 100 µM (inactive)	> 100 µM (inactive)		> 100 µM (inactive)	> 100 µM (inactive)	> 100 µM (inactive)
OC(C/C(=N\N1CCCCC1)c1cccs1)(C(F)(F)F)C(F)(F)F	> 10 µM (inactive)		> 10 µM (inactive)	> 10 µM (inactive)	> 10 µM (inactive)	> 10 µM (inactive)	> 10 µM (inactive)	> 10 µM (inactive)	> 10 µM (inactive)	> 10 µM (inactive)	> 10 µM (inactive)	> 10 µM (inactive)	> 10 µM (inactive)	> 10 µM (inactive)	> 10 µM (inactive)	> 10 µM (inactive)	> 10 µM (inactive)	> 10 µM (inactive)	> 10 µM (inactive)	> 10 µM (inactive)
